Measurements taken from US7371536B2, “Methods for transporting vitamin C” (priority 1999, dated 2008).

Tests used:
Type in all cases: cell-based
human SVCT1 [1] = target: T1, human SVCT1 (Homo sapiens, UniProt Q9UHI7); assay: L-[14C]ascorbic acid radiotracer uptake in Xenopus oocytes expressing human SVCT1
T1 construct: expressed in transfected cells; host or cells: Xenopus laevis oocytes injected with cRNA (vector pTLN2)
Protocol: Functional characterization in Xenopus oocytes—SVCT1 and SVCT2 cDNAs were subcloned into the pTLN2 vector (to improve functional expression in oocytes) and used for cRNA synthesis in vitro using the MEGAscript kit and T7 RNA polymerase (from Ambion). Oocytes were isolated from Xenopus laevis, treated with collagenase A and maintained at 18° C. in modified Barths' medium. Oocytes were injected with 15 ng SVCT1 or SVCT2 cRNA or water only. The radiotracer uptake and voltage-clamp experiments described below were conducted 2-5 days post-injection in standard medium of composition 100 mM NaCl, 2 mM KCl, 1 mM CaCl2, 1 mM MgCl2, and 10 mM HEPES (buffered to pH 7.5 with Tris base). For low-Na^+ or Na^+-free media, NaCl was replaced with choline chloride. For pH-dependence experiments, Na^+ media were buffered to between pH 5.5 and pH 8.0 using 0-5 mM MES, 0-5 mM HEPES and 0-5 mM Tris base. L-Ascorbic acid-containing solutions were always freshly prepared and used immediately. […] Oocytes were solubilized with 10% SDS and carbon-14 content measured by liquid scintillation counting. A two-microelectrode voltage-clamp was used to measure currents associated with SVCT1 expressed in oocytes. Oocytes were superfused at 22° C. in standard Na^+ medium and clamped at −50 mV. Current was continuously monitored by sampling at 1 Hz. Test solutions were always washed out with substrate-free, Na^+-free medium at pH 7.5 for several minutes. Once again, saturation kinetics data were fit to a modified Hill equation in which I and Imax were replaced by uptake V and maximal velocity Vmax for analysis of radiotracer uptake data.

human SVCT1 [2] = target: T1, human SVCT1; assay: Two-microelectrode voltage-clamp of Xenopus oocytes expressing human SVCT1; details: 500 μM, −50 mV
Protocol: Functional characterization in Xenopus oocytes—SVCT1 and SVCT2 cDNAs were subcloned into the pTLN2 vector (to improve functional expression in oocytes) and used for cRNA synthesis in vitro using the MEGAscript kit and T7 RNA polymerase (from Ambion). Oocytes were isolated from Xenopus laevis, treated with collagenase A and maintained at 18° C. in modified Barths' medium. Oocytes were injected with 15 ng SVCT1 or SVCT2 cRNA or water only. The radiotracer uptake and voltage-clamp experiments described below were conducted 2-5 days post-injection in standard medium of composition 100 mM NaCl, 2 mM KCl, 1 mM CaCl2, 1 mM MgCl2, and 10 mM HEPES (buffered to pH 7.5 with Tris base). For low-Na^+ or Na^+-free media, NaCl was replaced with choline chloride. For pH-dependence experiments, Na^+ media were buffered to between pH 5.5 and pH 8.0 using 0-5 mM MES, 0-5 mM HEPES and 0-5 mM Tris base. L-Ascorbic acid-containing solutions were always freshly prepared and used immediately. Radiotracer uptake was determined by incubating 8-12 oocytes for 30 min (within the time-course of linear uptake) in standard Na^+, low-Na^+ or Na^+-free media with 10-500 μM L-[1-^14C]ascorbic acid (final specific activity ≈0.3 GBq/mmol). Oocytes were solubilized with 10% SDS and carbon-14 content measured by liquid scintillation counting. A two-microelectrode voltage-clamp was used to measure currents associated with SVCT1 expressed in oocytes. Oocytes were superfused at 22° C. in standard Na^+ medium and clamped at −50 mV. Current was continuously monitored by sampling at 1 Hz. Test solutions were always washed out with substrate-free, Na^+-free medium at pH 7.5 for several minutes. Once again, saturation kinetics data were fit to a modified Hill equation in which I and Imax were replaced by uptake V and maximal velocity Vmax for analysis of radiotracer uptake data.

rat SVCT1 = target: T2, rat SVCT1 (Rattus norvegicus, UniProt Q9WTW7); assay: Two-microelectrode voltage-clamp of Xenopus oocytes expressing rat SVCT1; details: for evoked current / substrate selectivity (in words): oocytes expressing SVCT1
T2 construct: expressed in transfected cells; host or cells: Xenopus laevis oocytes injected with cRNA
Protocol: Rat SVCT1 and SVCT2 clones were obtained by isolating SVCT1 cDNA from rat kidney by expression cloning as described in Hediger et al., Methods Enzymol. 296:17-52 (1998). The SVCT2 cDNA was subsequently isolated by PCR-based homology screening of a rat brain cDNA library. […] Radiotracer and voltage-clamp experiments were performed (at 22° C.) in Xenopus oocytes two to seven days after injection with ˜25 ng of SVCT1 or SVCT2 cRNA synthesized in vitro. Radiotracer uptake was determined by incubating 6-10 oocytes for 30 or 60 min in standard 100 mM Na^+ or Na^+-free media with 10-600 μM L-[^14C]ascorbic acid.
Functional characterization of SVCT1 and SVCT2 in Xenopus oocytes—Oocytes were isolated from Xenopus laevis (under 2-aminoethylbenzoate anaesthesia), treated with collagenase A and stored at 18° C. in modified Barths' medium. Oocytes were injected with ≈25 ng of SVCT1 or SVCT2 cRNA synthesized in vitro, or water only (control), and incubated 2-7 days before radiotracer or voltage-clamp experiments were performed. Standard Na^+ uptake medium comprised 100 mM NaCl, 2 mM KCl, 1 mM CaCl2, 1 mM MgCl2, 10 mM HEPES (pH 7.5 with Tris base). For Na^+-free or low-Na^+ media, NaCl was replaced by equimolar choline chloride; likewise, Cl^− was replaced by gluconate for Cl^−-free medium. For pH-sensitivity experiments, Na^+ media were buffered at pH 5.5-8.0 using 0-5 mM MES, 0-5 mM HEPES and 0-5 mM Tris base. L-Ascorbic acid-containing solutions were freshly-prepared (without dithiothreitol) and used immediately.
Radiotracer uptake was determined by incubating 6-10 oocytes for 30 or 60 min in standard Na^+ or Na^+-free media (at 22° C.) with 10-600 μM L-[1-^14C]ascorbic acid (final specific activity 0.3 GBq/mmol). Oocytes were solubilized with 10% SDS and [^14C]-content was measured by liquid scintillation counting. A two-microelectrode voltage-clamp was used to measure currents in control oocytes and oocytes injected with rat SVCT1 or rat SVCT2 cRNA. Microelectrodes (resistance 0.5-5 MΩ) were filled with 3 M KCl. Oocytes were superfused at 22° C. in standard Na^+ medium and clamped at a holding potential (Vh) of −50 mV. For continuous current monitoring at Vh=−50 mV, the current was low-pass filtered at 20 Hz (sampling at 1 Hz). Additionally, step-changes in membrane potential (Vm) were applied (from +50 mV to −150 mV in 20-mV increments), each for a duration of 100 ms, before and after the addition of substrate; current was low-pass filtered at 500 Hz and digitized at 5 kHz. Test solutions were always washed out with substrate-free medium (100 mM choline chloride) at pH 7.5 for several minutes. Steady-state data (obtained by averaging the points over the final 16.7 ms at each Vm step when step-changes were applied) were fitted to equation (1) below, for which I is the evoked current (i.e., the difference in steady-state current measured in the presence and absence of substrate), Imax the derived current maximum, S the concentration of substrate S (Na^+ or L-ascorbic acid),
[formula] the substrate concentration at which current was half-maximal, and nH the Hill coefficient for S. (For radiotracer experiments, I was replaced with velocity V and Imax replaced with the derived maximal velocity, Vmax.)

T1 sequence (Q9UHI7 whole entry): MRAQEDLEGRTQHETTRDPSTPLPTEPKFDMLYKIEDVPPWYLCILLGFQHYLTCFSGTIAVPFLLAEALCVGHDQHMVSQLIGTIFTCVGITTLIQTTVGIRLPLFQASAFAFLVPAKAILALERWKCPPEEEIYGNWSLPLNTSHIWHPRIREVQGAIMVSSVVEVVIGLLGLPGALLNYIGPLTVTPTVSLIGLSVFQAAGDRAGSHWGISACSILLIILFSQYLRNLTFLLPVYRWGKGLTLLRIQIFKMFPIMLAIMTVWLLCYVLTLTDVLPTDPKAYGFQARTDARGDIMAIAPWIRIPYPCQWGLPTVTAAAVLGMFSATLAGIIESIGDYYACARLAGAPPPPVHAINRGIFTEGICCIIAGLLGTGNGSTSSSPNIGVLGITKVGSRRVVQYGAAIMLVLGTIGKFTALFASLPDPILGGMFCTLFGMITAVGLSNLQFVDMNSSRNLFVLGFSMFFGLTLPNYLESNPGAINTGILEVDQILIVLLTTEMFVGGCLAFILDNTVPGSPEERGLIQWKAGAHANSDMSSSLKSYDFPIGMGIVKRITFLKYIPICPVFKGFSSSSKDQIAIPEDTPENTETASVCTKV
T2 sequence (Q9WTW7 whole entry): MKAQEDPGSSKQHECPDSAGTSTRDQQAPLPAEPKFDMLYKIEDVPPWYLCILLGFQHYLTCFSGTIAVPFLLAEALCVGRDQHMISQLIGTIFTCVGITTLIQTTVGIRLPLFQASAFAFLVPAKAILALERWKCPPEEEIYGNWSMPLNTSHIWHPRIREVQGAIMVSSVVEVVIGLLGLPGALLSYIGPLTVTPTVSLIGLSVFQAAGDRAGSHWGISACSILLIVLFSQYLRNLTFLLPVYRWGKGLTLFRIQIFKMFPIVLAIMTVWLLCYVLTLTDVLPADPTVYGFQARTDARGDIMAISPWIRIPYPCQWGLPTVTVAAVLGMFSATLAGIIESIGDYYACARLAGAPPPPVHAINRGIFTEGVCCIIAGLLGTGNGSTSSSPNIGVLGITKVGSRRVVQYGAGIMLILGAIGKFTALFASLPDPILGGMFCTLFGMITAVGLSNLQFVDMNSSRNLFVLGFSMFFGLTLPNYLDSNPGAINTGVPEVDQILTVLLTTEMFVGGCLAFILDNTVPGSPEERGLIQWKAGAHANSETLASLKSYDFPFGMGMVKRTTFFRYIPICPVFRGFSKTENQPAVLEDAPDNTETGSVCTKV

SMILES | inhibition of L-[14C]ascorbic acid uptake (in words) (human SVCT1 [1]; data not shown) | further results
OC[C@H]1O[C@@H](n2cnc3c(O)ncnc32)[C@H](O)[C@@H]1O [inosine] | none resulted in any significant inhibition | –
O=C1O[C@H]([C@@H](O)CO)C(O)=C1OP(=O)(O)O [L-ascorbic acid-2-phosphate] | – | transport / substrate selectivity (in words) (human SVCT1 [2]): barely transported
Cc1cn([C@H]2C[C@H](O)[C@@H](COP(=O)(O)OP(=O)(O)OP(=O)(O)O)O2)c(=O)[nH]c1=O [dTTP] | none resulted in any significant inhibition | –
O=c1ccn([C@@H]2O[C@H](CO)[C@@H](O)[C@H]2O)c(=O)[nH]1 [uridine] | none resulted in any significant inhibition | –
Nc1ncnc2c1ncn2[C@H]1C[C@H](O)[C@@H](COP(=O)(O)OP(=O)(O)OP(=O)(O)O)O1 [dATP] | none resulted in any significant inhibition | –
Nc1nc2c(ncn2[C@@H]2O[C@H](COP(=O)(O)OP(=O)(O)OP(=O)(O)O)[C@@H](O)[C@H]2O)c(=O)[nH]1 [GTP] | none resulted in any significant inhibition | –
CCCCCCCCCCCCCCCC(=O)OC[C@H](O)[C@H]1OC(=O)C(O)=C1O [L-ascorbic acid-6-palmitate] | – | inhibition of L-[14C]ascorbic acid uptake (human SVCT1 [1]; data not shown): 20-30%
Nc1ncnc2c1ncn2[C@@H]1O[C@H](COP(=O)(O)OP(=O)(O)O)[C@@H](O)[C@H]1O [ADP] | none resulted in any significant inhibition | –
O=C[C@@H](O)[C@@H](O)[C@@H](O)CO [L-ribose] | not significantly inhibited | –
OC[C@@H](O)[C@@H](O)[C@H](O)[C@H](O)CO [D-mannitol] | not significantly inhibited | –
O=C1O[C@H]([C@@H](O)CO)C(=O)C1=O [dehydroascorbic acid] | – | evoked current relative to that for L-ascorbic acid (rat SVCT1; substrate selectivity, FIG. 4F): ≈ 5%; transport / substrate selectivity (in words) (human SVCT1 [2]): barely transported
Nc1nc2c(ncn2[C@@H]2O[C@H](CO)[C@@H](O)[C@H]2O)c(=O)[nH]1 [guanosine] | none resulted in any significant inhibition | –
O=c1[nH]c(=O)c2[nH]c(=O)[nH]c2[nH]1 [uric acid] | not significantly inhibited | –
O=CC[C@@H](O)[C@H](O)[C@H](O)CO [2-deoxy-D-glucose] | not significantly inhibited | –
Nc1ncnc2c1ncn2[C@@H]1O[C@H](COP(=O)(O)O)[C@@H](O)[C@H]1O [AMP] | none resulted in any significant inhibition | –
O=C(O)CCC(=O)O [succinic acid] | not significantly inhibited | –

SMILES | inhibition of L-[14C]ascorbic acid uptake (in words) (human SVCT1 [1]; data not shown) | further results
O=C(CO)[C@@H](O)[C@H](O)[C@H](O)CO [D-fructose] | not significantly inhibited | –
Nc1ncnc2c1ncn2C1CC(O)C(CO)O1 (stereo not shown) [2-deoxyadenosine] | none resulted in any significant inhibition | –
O=C(O)C(=O)O [oxalic acid] | not significantly inhibited | –
Nc1ncnc2c1ncn2[C@@H]1O[C@H](CO)[C@@H](O)[C@H]1O [adenosine] | none resulted in any significant inhibition | –
[Li+] [Li^+] | – | ability to substitute for Na^+ in driving SVCT1-mediated transport (human SVCT1 [1]): unable to substitute for Na^+
Cc1c[nH]c(=O)[nH]c1=O [thymine] | none resulted in any significant inhibition | –
Nc1ccn([C@H]2C[C@H](O)[C@@H](COP(=O)(O)OP(=O)(O)OP(=O)(O)O)O2)c(=O)n1 [dCTP] | none resulted in any significant inhibition | –
O=C1O[C@H]([C@@H](O)CO)[C@H](O)[C@@H]1O [L-gulono-γ-lactone] | – | evoked current / substrate selectivity (in words) (rat SVCT1): excluded; transport / substrate selectivity (in words) (human SVCT1 [2]): excluded
O=c1cc[nH]c(=O)[nH]1 [uracil] | none resulted in any significant inhibition | evoked current / substrate selectivity (in words) (rat SVCT1): excluded
CC(O)C(=O)O (stereo not shown) [lactic acid] | not significantly inhibited | –
O=c1ccn([C@@H]2O[C@H](COP(=O)(O)OP(=O)(O)OP(=O)(O)O)[C@@H](O)[C@H]2O)c(=O)[nH]1 [UTP] | none resulted in any significant inhibition | –
O=C[C@H](O)[C@H](O)[C@H](O)CO [D-ribose] | not significantly inhibited | –
[Na+] [Na^+] | – | K0.5 for Na^+ (concentration at which current was half-maximal) (rat SVCT1; at 200 μM L-ascorbic acid, −50 mV): 40 mM; Hill coefficient (nH) (rat SVCT1; evoked currents, −50 mV): ≈ 2; K0.5 for Na^+ (human SVCT1 [1]; L-ascorbic acid uptake): 15 to 25 mM
Nc1nc2c(ncn2[C@H]2C[C@H](O)[C@@H](COP(=O)(O)OP(=O)(O)OP(=O)(O)O)O2)c(=O)[nH]1 [dGTP] | none resulted in any significant inhibition | –
Nc1ncnc2nc[nH]c12 [adenine] | none resulted in any significant inhibition | –
Nc1ncnc2c1ncn2[C@@H]1O[C@H](COP(=O)(O)OP(=O)(O)OP(=O)(O)O)[C@@H](O)[C@H]1O [ATP] | none resulted in any significant inhibition | –
